{
  "source": "patent US5434136A",
  "about": "“Treatment of motility disorders with a GNRH analog” (priority 1992, dated 1995)",
  "key": {"[1]": {"test_system": "serum estradiol, progesterone, LH, FSH", "assay": "Serum estradiol, progesterone, FSH and LH by radioimmunoassay before and after three months of leuprolide", "type": "in vivo, human", "details": "for Estradiol after 3 months / Progesterone after 3 months / FSH after 3 months / LH after 3 months: serum", "excerpt": "The symptoms of the two patients with GMD were abdominal pain located in the right upper quadrant and epigastrium, daily nausea, and intermittent vomiting exacerbated by eating and by the luteal phase of the menstrual cycle. The two patients with IIHVN had abdominal pain, nausea, and intermittent vomiting, and also had urinary tract involvement consisting of pain and a decrease in urination. The fifth patient had Roux-en-Y syndrome (defined as epigastric-to-right-upper-quadrant pain, nausea, and vomiting increased by eating) after surgical construction of a gastro-jejunal Roux-en-Y anastomosis. The mean duration of these symptoms was eight years (Table 1). All subjects had undergone extensive blood testing, several upper gastrointestinal x-ray series, barium enemas, esophagogastroduodenoscopy, endoscopic retrograde cholangiopancreatography, gastric emptying tests with radiolabeled meal, ultrasound of the abdomen, computerized axial tomography of the abdomen, and many other tests. The results of all tests were normal, except for prolonged gastric emptying in the patient with the Roux-en-Y Syndrome. Because of their intractable clinical problem, these patients were included in the test protocol with leuprolide acetate. Protocol: The symptoms of each patient were first assessed, and their tests evaluated. Each patient kept a daily symptom diary. Leuprolide acetate was obtained by prescription as Lupron (TAP pharmaceuticals, Abbott Labs, North Chicago, Ill.). One multi-use vial of Lupron comprised of […] Leuprolide Acetate. A daily dose of 0.5 mg ([…]) was self-administered by subcutaneous injection, for a period of three months. Each patient was examined at 0, 1 and 3 months of treatment. After the third month, leuprolide was continued as previously, and estrogen (0.625 mg orally) and calcium (1000 mg orally) were also administered. At the end of the sixth month, a two week withdrawal period from leuprolide acetate ensued. During this period a 10 mg oral dose of progesterone was given to pre-menopausal patients, to assess recurrence of symptoms and to induce menses. Post-menopausal women were not treated with progesterone during the two week withdrawal period. This procedure was then continued for an additional six months, with drug withdrawal and progesterone given every three months to induce a menstrual cycle. Serum estradiol, progesterone, FSH, and LH were quantitated by radioimmunoassay prior to the initiation of leuprolide treatment, and at three months post treatment initiation."}, "[2]": {"test_system": "migrating motor complexes, jejunum", "assay": "Leuprolide acetate effects on migrating motor complexes in rats", "type": "in vivo, female Wistar rats", "details": "for Migrating Motor Complexes, L-Fasted / Migrating Motor Complexes, L-Fed: mean ± SEM", "description": "Eleven female Wistar rats weighing between 175 and 250 g were each implanted with four bipolar Ag/AgCL electrodes (the preparation of which is described in: Mathias, Am. J. Physiology, 249:[…]-[…], 1981). The electrodes were sewn 5 cm from the Ligament of Trietz and 5 cm apart, onto the jejunal serosa. The number of migrating myoelectric complexes was recorded using a R-612 Dynograph (Sensor-Medics, Anaheim, Calif.). Rats were fasted for 36 hours prior to recording and feeding (no food, liberal water), and were housed in special cages to remove feces. After 36 hours of fasting, Migrating Motor Complexes (MMC) were recorded at a sensitivity of 0.2 mV/cm, 2.5 mm/sec paper speed, and a Time Constant of 1 for a duration of 2 to 4 hours. Immediately following the fasted recording session, the rats were fed 2 biscuits of Purina rat chow with simultaneous recording during feeding and continued for 4 hours. This procedure was followed for 2 to 4 recording sessions prior to the treatment with leuprolide acetate (Controls). Leuprolide acetate was then administered daily, in the morning, subcutaneously in the hind limb at a dose ranging from 2 to 40 ug/100 g body weight. After a period of at least 24 hours post treatment with leuprolide, the fasting/fed recording sessions were begun as described for the controls to obtain recordings through 2 to 4 sessions."}, "[3]": {"test_system": "GI disorders secondary to SLE", "assay": "Treatment of patients with GI disorders secondary to Systemic Lupus Erythematosus: clinical outcome", "type": "in vivo, human", "details": "for GI symptoms: within eight weeks", "description": "Daily treatment with 2.0 mg luprolide acetate (Lupron, Tapp Abbott Pharmaceutical Company) was given daily by subcutaneous injection. […] Treatment with 1.25 mg. of leuprolide acetate (Lupron) was given daily by subcutaneous injection. […] Daily administration of 1.75 mg of luprolide acetate (Lupron) was administered subcutaneously. […] This patient has been hospitalized several times since beginning luprolide acetate therapy for exacerbations of their SLE, but the GI tract has not been a factor. Their debilitating symptoms have been controlled, and they were able to return to work. Daily administration of 1.5 mg of luprolide acetate (Lupron) was given by subcutaneous injection. Within eight weeks of Lupron therapy, their GI symptoms were controlled. […] Daily administration of 1.75 mg luprolide acetate (Lupron) was given subcutaneously. After six months of Lupron therapy, motility recordings were again performed. Ten migrating motor complexes per 12 hour recording session were seen. These complexes were organized and appeared more typical of a controlled tracing, showing normal cycling activity in the stomach and small intestine. […] Their hydrogen breath test was unchanged."}, "[4]": {"test_system": "motility of stomach and small intestine", "assay": "Motility recordings (duodenal jejunal manometry) and hydrogen breath test in SLE patients", "type": "in vivo, human", "description": "Motility recordings of the stomach and small intestine were performed with a ultraminiature force-transducer probe (Millar Instruments, Houston, Tex.). Pressure readings from the probe were recorded on an R612 physiologic recorder fitted with Model 9872 couplers (SenorMedics, Yorba Linda, Calif.). After the probe was passed transnasally and placed fluoroscopically, a 12 hour recording of the patient was made with the patient in the fasted state. They then drank a 240-ml liquid meal (ENSURE), and the recording was continued for three hours to evaluate conversion from the fasting pattern to fed-state motor activity. During the fasting state, this patient had three poorly formed and disorganized migrating motor complexes, whereas the normal range expected is 6-8, or a mean of 7.4 in the 12 hour recording period. […] The patient was diagnosed as having chronic intestinal pseudo-obstruction associated with sero-negative SLE."}, "[5]": {"details": "after three months of treatment vs baseline"}, "[6]": {"details": "SLE patient 1, 2.0 mg daily s.c."}, "[7]": {"details": "SLE patient 2, 1.25 mg daily s.c., within approximately eight weeks"}, "[8]": {"details": "SLE patient 4, 1.5 mg daily s.c."}},
  "data": [
    {"smiles": "CCNC(=O)[C@@H]1CCCN1C(=O)[C@H](CCCNC(=N)N)NC(=O)[C@H](CC(C)C)NC(=O)[C@@H](CC(C)C)NC(=O)[C@H](Cc1ccc(O)cc1)NC(=O)[C@H](CO)NC(=O)[C@H](Cc1c[nH]c2ccccc12)NC(=O)[C@H](Cc1c[nH]cn1)NC(=O)[C@@H]1CCC(=O)N1", "note": "[Leuprolide acetate, leuprolide acetate]", "values": [
      {"measurement": "Estradiol after 3 months", "setting": "[1]; Patient 1, baseline 44.0 pg/ml", "result": 13.0, "unit": "pg/mL"},
      {"measurement": "Progesterone after 3 months", "setting": "[1]; Patient 1, baseline 3.0 n/ml", "result": "< 0.25", "unit": "n/ml"},
      {"measurement": "FSH after 3 months", "setting": "[1]; Patient 1, baseline 12.1 mIU/ml", "result": 9.0, "unit": "MIU/ml"},
      {"measurement": "LH after 3 months", "setting": "[1]; Patient 1, baseline 19.0 mIU/mL", "result": 6.0, "unit": "mIU/ml"},
      {"measurement": "Estradiol after 3 months", "setting": "[1]; Patient 2, baseline 44.0 pg/ml", "result": 39.0, "unit": "pg/mL"},
      {"measurement": "Progesterone after 3 months", "setting": "[1]; Patient 2, baseline 1.0 n/ml", "result": "< 0.25", "unit": "n/ml"},
      {"measurement": "FSH after 3 months", "setting": "[1]; Patient 2, baseline 13.0 mIU/ml", "result": 11.0, "unit": "MIU/ml"},
      {"measurement": "LH after 3 months", "setting": "[1]; Patient 2, baseline 16.0 mIU/ml", "result": 7.0, "unit": "mIU/ml"},
      {"measurement": "Estradiol after 3 months", "setting": "[1]; Patient 3, baseline 28.0 pg/ml", "result": 3.4, "unit": "pg/mL"},
      {"measurement": "LH after 3 months", "setting": "[1]; Patient 3, baseline 18.4 mIU/ml", "result": 11.2, "unit": "mIU/ml"},
      {"measurement": "FSH after 3 months", "setting": "[1]; Patient 3, baseline 32.0 mIU/ml", "result": 11.2, "unit": "mIU/ml"},
      {"measurement": "Progesterone after 3 months", "setting": "[1]; Patient 3, baseline <0.25 n/ml", "result": "< 0.25", "unit": "n/ml"},
      {"measurement": "Estradiol after 3 months", "setting": "[1]; Patient 4, baseline 20.0 pg/ml", "result": 5.5, "unit": "pg/mL"},
      {"measurement": "Progesterone after 3 months", "setting": "[1]; Patient 4, baseline 3.0 n/ml", "result": "< 0.25", "unit": "n/ml"},
      {"measurement": "FSH after 3 months", "setting": "[1]; Patient 4, baseline 13.1 mIU/ml", "result": 7.9, "unit": "mIU/ml"},
      {"measurement": "LH after 3 months", "setting": "[1]; Patient 4, baseline 18.3 mIU/ml", "result": 5.0, "unit": "MIU/ml"},
      {"measurement": "Estradiol and FSH levels", "setting": "[1]; [5]", "result": "decreased"},
      {"measurement": "Levels of serum progesterone and LH", "setting": "[1]; [5]", "result": "significant decrease"},
      {"measurement": "Migrating Motor Complexes, L-Fasted", "setting": "[2]; 2 μg/100 g body weight s.c. daily, control fasted 4.69 ± 0.24", "result": "4.60 ± 0.12", "unit": "MMC/hour"},
      {"measurement": "Migrating Motor Complexes, L-Fed", "setting": "[2]; 2 μg/100 g body weight s.c. daily, control fed 2.60 ± 0.27", "result": "4.83 ± 0.65", "unit": "MMC/hour"},
      {"measurement": "Migrating Motor Complexes, L-Fasted", "setting": "[2]; 20 μg/100 g body weight s.c. daily, control fasted 4.43 ± 0.25", "result": "5.41 ± 0.17", "unit": "MMC/hour"},
      {"measurement": "Migrating Motor Complexes, L-Fed", "setting": "[2]; 20 μg/100 g body weight s.c. daily, control fed 1.40 ± 0.48", "result": "4.11 ± 0.22", "unit": "MMC/hour"},
      {"measurement": "Migrating Motor Complexes, L-Fasted", "setting": "[2]; 40 μg/100 g body weight s.c. daily, control fasted 4.75 ± 0.48", "result": "4.48 ± 0.12", "unit": "MMC/hour"},
      {"measurement": "Migrating Motor Complexes, L-Fed", "setting": "[2]; 40 μg/100 g body weight s.c. daily, control fed 2.33 ± 0.33", "result": "3.45 ± 0.25", "unit": "MMC/hour"},
      {"measurement": "Dose at which the fed state was replaced by cycling MMCs (as little as)", "setting": "[2]; fed rats", "result": 2, "unit": "μg/100 g body weight"},
      {"measurement": "Compliment levels (C3 and C4)", "setting": "[3]; [6]", "result": "returned to normal"},
      {"measurement": "Hemoglobin, hematocrit, white blood cells and platelets", "setting": "[3]; [6]", "result": "returned to normal"},
      {"measurement": "Need of Imuran or prednisone to control SLE", "setting": "[3]; [6]", "result": "no longer required Imuran or prednisone"},
      {"measurement": "GI symptoms", "setting": "[3]; [6]", "result": "free of the above described GI symptoms"},
      {"measurement": "Body weight gained", "setting": "[3]; [7]", "result": "15-20 pounds"},
      {"measurement": "Gastrointestinal symptoms", "setting": "[3]; [7]", "result": "free of gastrointestinal symptoms"},
      {"measurement": "Oral food intake", "setting": "[3]; SLE patient 3, 1.75 mg daily s.c., required TPN before", "result": "able to eat soft, solid food by mouth"},
      {"measurement": "GI symptoms", "setting": "[3]; SLE patient 3, 1.75 mg daily s.c.", "result": "controlled"},
      {"measurement": "Nutrition", "setting": "[3]; [8]", "result": "able to eat and maintain their nutrition on liquid supplements taken by mouth"},
      {"measurement": "Body weight within six months", "setting": "[3]; SLE patient 4, 1.5 mg daily s.c., oral intake", "result": "did not gain weight, but they did not lose weight"},
      {"measurement": "GI symptoms", "setting": "[3]; [8]", "result": "controlled"},
      {"measurement": "Effectiveness of therapy in an older, post menopausal patient", "setting": "[3]; SLE patient 5", "result": "effective"},
      {"measurement": "Eating and body weight", "setting": "[3]; SLE patient 5, after six months of therapy", "result": "able to eat foods by mouth and gained weight"},
      {"measurement": "Motility pattern upon the liquid meal", "setting": "[4]; SLE patient 4, after six months of therapy, failed to convert before", "result": "converted to the fed state"},
      {"measurement": "Cycling migrating motor complexes in the motility recording", "setting": "[4]; SLE patient 4, after six months of therapy, virtually no motility before, normal range 6-8 per 12 hour", "result": "six"},
      {"measurement": "Migrating motor complexes per 12 hour recording session", "setting": "[4]; SLE patient 5, 1.75 mg daily s.c., after six months, absence of motility before", "result": "Ten"},
      {"measurement": "Motility pattern after intake of the liquid meal", "setting": "[4]; SLE patient 5, after six months of therapy, failed to convert before", "result": "converted to the fed state pattern"},
      {"measurement": "Hydrogen breath test (oral to cecal transit time)", "setting": "[4]; SLE patient 5, after six months of therapy, markedly prolonged before", "result": "unchanged"}
    ]}
  ]
}
